The record followed here is article PMC12490239, “Combining BET inhibition with SMAC mimetics restricts tumor growth and triggers immune surveillance in preclinical cancer models” (Cell Reports Medicine, 2025).

Assay in all cases: cells
What all share (parameters): CellTiter-Glo 2.0 luminescence proliferation/viability assay, single agents, human tumour cell line panel
(In general: ATP-based viability assays read luminescence as a measure of living cells.)

The test system of test [1] is C80. The conditions noted are these: 96 h; single agent; read-out: IC50 SMACm. The procedure:
(§1) The effect of BETi, SMACm alone or in combination cell viability was determined using a 96-h CellTiter-Glo2.0 proliferation assay. Cells were seeded in assay plates and placed at 37°C with 5% CO2 for twenty-four hours before treatment. Compounds were added in triplicate in gradients of increasing concentrations, in case of SMACm ranging between 4.5 nM and 10 μM and in case of BETi between 1.4 nM and 3 μM. DMSO served as control. Cell viability was measured by luminescence analysis using luminescence read on Envision plate readers (PerkinElmer). An additional set of colorectal cancer cell lines was assayed with technical duplicates and experimental triplicates. Cell viability was measured by luminescence analysis using luminescence read on Tecan Plate reader. The effects of drug combinations were analyzed using the Bliss Independence Model.[34] Synergy score was calculated by the average of 3 highest and 3 lowest BLISS Gaps between predicted and measured POC (Percentage of Control) values. To investigate the synergistic interaction between BI 894999 (hereafter, BETi) and BI 891065 (hereafter, SMACm), we evaluated the in vitro anti-tumor effect of the single agents or the combination in a large panel of 151 cancer cell lines of different tissue origin: CRC, gastric cancer, non-small cell lung cancer (NSCLC), and pancreatic carcinoma (Figures 1C–1F). As a mono-agent, SMACm was able to inhibit cell proliferation only in a limited number of tested cell lines (4%, Table S2). Most of the cell lines responded to inhibition by BETi, with sensitivity ranging from 10 to 100 nM (Figure 1C). Bliss Gap analysis, performed to analyze the effect of the BETi+SMACm combination on tumor cell growth (Figures 1D–1F), unveiled potent synergistic activity across the cell models tested (Figure 1E), independent of tumor type (Figure 1F).  Figure 1 The combinatorial effect of BI 894999 and BI 891065 across a panel of human tumor cell lines (A) Selectivity and potency profiles of BI 891065. Top left, structure of BI 891065. Top right, IC50 values for BI 891065 inhibition of cIAP1, cIAP2, and XIAP. Bottom, physicochemical properties of […]. (B) WES (Simple Western System) analysis of cIAP1, cIAP2, and XIAP levels upon treatment of HT-29 cells with indicated concentrations of BI 891065 for 6 h (C) IC50 values determined in cell proliferation assays (n = 151) individually for BETi BI 894999 and SMACm BI 891065. Each point represents a cell line tested. (D) Example of proliferation assay for synergy analysis in LoVo cell line; shown is combination plate map matrix and the cell growth inhibition (CGI) at the indicated concentrations; CGI values < 100%: tumor cell growth, CGI 100%: tumor cell stasis, and CGI > 100%: tumor cell killing. (E) Synergy scores across the tested panel of cell lines obtained using Bliss synergy analysis. (F) Violin plots showing the synergy scores for BETi and SMACm combination across indications. N is the number of cell lines tested in each indication group.

Test [2] relates to CFPAC-1. The settings on record: Homo sapiens, CFPAC-1, 96 h; single agent; read-out: IC50 SMACm. The method, then:
as §1

Test [3] deals with COLO94H. The conditions noted are these: 96 h; single agent; read-out: IC50 SMACm. The procedure: as §1
The test system of test [4] is HCC-15. The conditions noted are these: HCC15, 96 h; single agent; read-out: IC50 SMACm. The procedure: as §1
The test system of test [5] is HCC1438. The conditions noted are these: 96 h; single agent; read-out: IC50 SMACm. The procedure:
as §1

Test [6] relates to HLC-1. The conditions noted are these: 96 h; single agent; read-out: IC50 SMACm. The method, then:
as §1

The test system of test [7] is MDST8. The settings on record: MDST8, 96 h; single agent; read-out: IC50 SMACm. The procedure:
as §1

Test [8] concerns NCI-H1373. The settings on record: Homo sapiens, NCI-H1373, 96 h; single agent; read-out: IC50 SMACm. The method, then: as §1
The subject of test [9] is NCI-H441. The conditions noted are these: Homo sapiens, NCI-H441, 96 h; single agent; read-out: IC50 SMACm. The method, then:
as §1

In test [10] the test system is SNU-16. The settings on record: Homo sapiens, SNU-16, 96 h; single agent; read-out: IC50 SMACm. The method, then:
as §1

Test [11] concerns SNU-324. The conditions noted are these: 96 h; single agent; read-out: IC50 SMACm. The procedure: as §1
Test [12] concerns SNU1181. The conditions noted are these: 96 h; single agent; read-out: IC50 SMACm. The procedure:
as §1

The subject of test [13] is SNU1684. The conditions noted are these: 96 h; single agent; read-out: IC50 SMACm. The method, then:
as §1

For test [14], the system named is SNU503. The settings on record: 96 h; single agent; read-out: IC50 SMACm. The procedure: as §1
In test [15] the test system is SUIT-2. The settings on record: SUIT-2, 96 h; single agent; read-out: IC50 SMACm. The method, then: as §1
Test [16] has as its system T84. The conditions noted are these: Homo sapiens, T84, 96 h; single agent; read-out: IC50 SMACm. The procedure: as §1

As to `CN[C@@H](C)C(=O)Nc1ccc(-c2c(-c3cccnc3OC)nc3cc(C)ccn23)c(C#Cc2ccc3c(C)nccc3c2)n1` [SMACm, BI 891065], the IC50 (commonly the midpoint of a concentration-inhibition curve) in [1] was determined as 1.81 µM; in test [2], 1.99 µM; in test [3] it was 4.69 µM; in test [4] it was 4.6 µM; in [5] it was 2.29 µM; in [6], 5.83 µM. Also, the IC50 was 4.78 µM in test [7]; > 10 µM in test [8]; 6.13 µM in test [9]; 4.32 µM in test [10]; 4.7 µM in [11]; 5.08 µM in test [12]. The IC50 in test [13] amounted to 3.2 µM; in test [14], 5.23 µM; in test [15] it was 4.77 µM; in [16] it was 4.44 µM.
